# Assay results as given in ChEMBL document CHEMBL3826961, “Lanostane triterpenoids from Ganoderma curtisii and their NO production inhibitory activities of LPS-induced microglia” (Bioorg Med Chem Lett, 2016).
# Columns and labels:
# [1] = Antiinflammatory activity in mouse BV2 cells assessed as inhibition of LPS-induced NO production incubated for 24 hrs measured after 15 mins by Griess assay; type: functional, cell-based; conditions: BV-2
# [2] = Cytotoxicity against LPS-induced mouse BV2 cells assessed as cell viability after 24 hrs by MTT assay; type: cell-based, BV-2; parameters: concentration or dose not given beside the values; conditions: read-out: Activity
Compound,IC50 [1] [µM],viability at 24 h [2] [%]
C/C(=C/C(=O)CC(C)C(=O)O)[C@H]1CC(=O)[C@@]2(C)C3=C(C(=O)C[C@]12C)[C@@]1(C)CCC(=O)C(C)(C)[C@@H]1C[C@@H]3O (stereo partly specified),13.8,96.5
CC(CC(=O)C[C@@H](C)[C@H]1C[C@H](O)[C@@]2(C)C3=C(C(=O)C[C@]12C)[C@@]1(C)CCC(=O)C(C)(C)[C@@H]1C[C@@H]3O)C(=O)O (stereo partly specified),13.6,97.9
C/C(=C\CC[C@@H](C)[C@H]1CC[C@@]2(C)C3=CC[C@H]4C(C)(C)[C@@H](O)CC[C@]4(C)C3=CC[C@]12C)CO [GANODEROL B],13.7,91.3
CC(CC(=O)C[C@@H](C)[C@H]1CC(=O)[C@@]2(C)C3=C(C(=O)[C@@H](O)[C@]12C)[C@@]1(C)CC[C@H](O)C(C)(C)[C@@H]1CC3=O)C(=O)O (stereo partly specified) [GANODERIC ACID C6],15.4,91.6
C/C(=C/C(=O)CC(C)C(=O)O)[C@H]1CC(=O)[C@@]2(C)C3=C(C(=O)[C@@H](O)[C@]12C)[C@@]1(C)CC[C@H](O)C(C)(C)[C@@H]1C[C@@H]3O (stereo partly specified),9.55,93.5
COC(=O)C(C)CC(=O)C[C@@H](C)[C@H]1C[C@H](O)[C@@]2(C)C3=C(C(=O)C[C@]12C)[C@@]1(C)CCC(=O)C(C)(C)[C@@H]1C[C@@H]3O (stereo partly specified) [METHYL GANODERATE A],8.01,91.3
CC(=O)O[C@@H]1C(=O)C2=C(C(=O)C[C@H]3C(C)(C)C(=O)CC[C@]23C)[C@]2(C)C(=O)C[C@H](/C(C)=C\C(=O)CC(C)C(=O)O)[C@@]12C (stereo partly specified),28,94.3
C/C(=C/C(=O)CC(C)C(=O)O)[C@H]1CC(=O)[C@@]2(C)C3=C(C(=O)[C@@H](O)[C@]12C)[C@@]1(C)CC[C@H](O)C(C)(C)[C@@H]1CC3=O (stereo partly specified),25.9,94.5
CC(CC(=O)C[C@@H](C)[C@H]1C[C@H](O)[C@@]2(C)C3=C(C(=O)C[C@]12C)[C@@]1(C)CCC(=O)C(C)(C)[C@@H]1CC3)C(=O)O (stereo partly specified) [GANOLUCIDIC ACID A],25.3,95.2
CC(CC(=O)C[C@@H](C)[C@H]1CC(=O)[C@@]2(C)C3=C(C(=O)C[C@]12C)[C@@]1(C)CCC(=O)C(C)(C)[C@@H]1C[C@@H]3O)C(=O)O (stereo partly specified) [GANODERIC ACID D],10.9,93.3
CC(=O)O[C@@H]1C(=O)C2=C(C(=O)C[C@H]3C(C)(C)[C@@H](O)CC[C@]23C)[C@]2(C)C(=O)C[C@H]([C@H](C)CC(=O)CC(C)C(=O)O)[C@@]12C (stereo partly specified) [GANODERIC ACID H],12.6,90.4
CC(=O)O[C@@H]1C(=O)C2=C([C@@H](O)C[C@H]3C(C)(C)[C@@H](O)CC[C@]23C)[C@]2(C)C(=O)C[C@H]([C@H](C)CC(=O)CC(C)C(=O)O)[C@@]12C (stereo partly specified) [GANODERIC ACID K],3.65,98.5
CC(=O)O[C@@H]1C(=O)C2=C(C(=O)C[C@H]3C(C)(C)C(=O)CC[C@]23C)[C@]2(C)C(=O)C[C@H]([C@H](C)CC(=O)CC(C)C(=O)O)[C@@]12C (stereo partly specified) [GANODERIC ACID F],24.1,90.6
CC(CC(=O)C[C@@H](C)[C@H]1C[C@H](O)[C@@]2(C)C3=C(C(=O)C[C@]12C)[C@@]1(C)CC[C@H](O)[C@@](C)(CO)[C@@H]1C[C@@H]3O)C(=O)O (stereo partly specified),4.15,97.8
COC(=O)CC[C@@H](C)[C@H]1CC(=O)[C@@]2(C)C3=C(C(=O)[C@@H](O)[C@]12C)[C@@]1(C)CC[C@H](O)C(C)(C)[C@@H]1CC3=O [METHYL LUCIDENATE L],22.5,83.5
CC(CC(=O)C[C@@H](C)[C@H]1C[C@H](O)[C@@]2(C)C3=C(C(=O)C[C@]12C)[C@@]1(C)CCC(=O)C(C)(C)[C@@H]1CC3=O)C(=O)O (stereo partly specified) [GANODERIC ACID J],22,93.7
C/C(=C/C(=O)CC(C)C(=O)O)[C@H]1C[C@H](O)[C@@]2(C)C3=C(C(=O)C[C@]12C)[C@@]1(C)CCC(=O)C(C)(C)[C@@H]1C[C@@H]3O (stereo partly specified),8.73,92.5
C/C(=C/C(=O)CC(C)C(=O)O)[C@H]1C[C@H](O)[C@@]2(C)C3=C(C(=O)C[C@]12C)[C@@]1(C)CCC(=O)C(C)(C)[C@@H]1CC3 (stereo partly specified),26.8,89.3
O=c1c(O)c(-c2ccc(O)c(O)c2)oc2cc(O)cc(O)c12 [QUERCETIN],15.1,92.5
CC(CC(=O)C[C@](C)(O)[C@H]1CC(=O)[C@@]2(C)C3=C(C(=O)[C@@H](O)[C@]12C)[C@@]1(C)CC[C@H](O)C(C)(C)[C@@H]1C[C@@H]3O)C(=O)O (stereo partly specified),21.3,96.3
CC(CC(=O)C[C@@H](C)[C@H]1CC(=O)[C@@]2(C)C3=C(C(=O)C[C@]12C)[C@@]1(C)CCC(=O)C(C)(C)[C@@H]1CC3=O)C(=O)O (stereo partly specified),9.41,97.5
CC(CC(=O)C[C@@H](C)[C@H]1CC(=O)[C@@]2(C)C3=C(C(=O)C[C@]12C)[C@@]1(C)CC[C@H](O)C(C)(C)[C@@H]1C[C@@H]3O)C(=O)O (stereo partly specified) [GANODERIC ACID B],20.2,94.7
CC(CC(=O)C[C@@H](C)[C@H]1CC(=O)[C@@]2(C)C3=C(C(=O)[C@@H](O)[C@]12C)[C@@]1(C)CC[C@H](O)C(C)(C)[C@@H]1C[C@@H]3O)C(=O)O (stereo partly specified) [GANODERIC ACID G],5.77,95.2
CC(CC(=O)C[C@@H](C)[C@H]1C[C@H](O)[C@@]2(C)C3=C(C(=O)C[C@]12C)[C@@]1(C)CC[C@H](O)C(C)(C)[C@@H]1C[C@@H]3O)C(=O)O (stereo partly specified),13.6,90.7
CC(=O)O[C@@H]1C(=O)C2=C(C(=O)C[C@H]3C(C)(C)[C@@H](O)CC[C@]23C)[C@]2(C)C(=O)C[C@H](/C(C)=C\C(=O)CC(C)C(=O)O)[C@@]12C (stereo partly specified),10.4,95.1
C[C@H](CC[C@H](O)[C@](C)(O)CO)[C@H]1CC[C@@]2(C)C3=CC[C@H]4C(C)(C)C(=O)CC[C@]4(C)C3=CC[C@]12C [GANODERMANONTRIOL],23.6,85.5
CC(CC(=O)C[C@@H](C)[C@H]1C[C@H](O)[C@@]2(C)C3=C(C(=O)C[C@]12C)[C@@]1(C)CC[C@H](O)C(C)(C)[C@@H]1CC3=O)C(=O)O (stereo partly specified),6.5,89.3
CC(CC(=O)C[C@@H](C)[C@H]1CC(=O)[C@@]2(C)C3=C(C(=O)[C@@H](O)[C@]12C)[C@@]1(C)CCC(=O)C(C)(C)[C@@H]1C[C@@H]3O)C(=O)O (stereo partly specified),5.91,92.3
